The subject of one data set is Xenopus embryos. Summed up: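 Stage 31 (37 hpf) Xenopus embryos, five per well, exposed to 20 µM compound in 1% DMSO at 23 °C for 4 days. Edema, lethality and other external phenotypes were scored daily by two investigators at stages 39, 41, 45 and 47.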
A further data set has as its system LEC. Kind of data set: cells. The format is cell-based, human. Conditions: Homo sapiens; for activity at 1 µM: 1 μM in 0.1% DMSO. In outline:
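HUVEC and LEC in EBM with 20% FBS, hydrocortisone and dibutyryl-cAMP, up to eleven passages, treated overnight at 37 °C with compound at 1 μM in 0.1% DMSO, then fixed in 4% paraformaldehyde. Read-out: total tube length (μm) per area over three hotspot images per well, triplicate wells.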

Read-outs that look alike come from different tables or passages of the source.

For the compound `Oc1cc(-c2ccccc2)nc2nc(Cl)ccc12` [7-Chloro-4-hydroxy-2-phenyl-1,8-naphthyridine], the “Lethality (NF)” value with Xenopus embryos (compounds causing edema, 20 μM, 1% DMSO, treatment from stage 31, scored to stage 47) was 39 NF. Further, in the data set with Xenopus embryos (embryonic stage), the “Type of edema Pericordial” value is 39 embryonic stages according to Nieuwkoop and Faber (NF). In the data set on Xenopus embryos (embryonic stage, — = no stage of lethality given), the Lethality was 39 embryonic stages according to Nieuwkoop and Faber (NF). Besides, the activity at 1 µM in the data set with LEC (overnight, read-out: LEC tube formation) was 50 to 85%; in the data set on LEC (read-out: LEC tube formation (tube length)) it was 50 to 85%. The IC50 – broadly, the concentration at which inhibition is half-maximal – with LEC (doses 0.2-2 μM, data not shown, read-out: IC50 of LEC tube formation) is 1300 nM.
